This is an account of results in patent publication US20110135772A1, “SKIN CARE AGENT AND COMPOSITIONS THEREOF” (priority 2009, published 2011).

The target in this test is elastase (Sus scrofa, UniProt P00772). Description: Elastase inhibition assay (succinyl-L-alanyl-L-alanyl-L-alanyl-p-nitroanilide hydrolysis, 410 nm). The class given is biochemical. The method, then: 300 μl (0.6 mg) of succinyl-L-alanyl-L-alanyl-L-alanyl-p-nitroanilide (the enzyme substrate), 1200 μl of buffer and varying amounts of the elastase inhibitor under testing are incubated at 37° C. for 20 minutes. The hydrolysis is measured by the spectrophotometric measurement of the release of p-nitroaniline at a wavelength of 410 nm.
The anti-aging activity of the individual molecules along with different combinations were studied and the results mentioned in Table.2

Sequence of elastase (P00772 27-266): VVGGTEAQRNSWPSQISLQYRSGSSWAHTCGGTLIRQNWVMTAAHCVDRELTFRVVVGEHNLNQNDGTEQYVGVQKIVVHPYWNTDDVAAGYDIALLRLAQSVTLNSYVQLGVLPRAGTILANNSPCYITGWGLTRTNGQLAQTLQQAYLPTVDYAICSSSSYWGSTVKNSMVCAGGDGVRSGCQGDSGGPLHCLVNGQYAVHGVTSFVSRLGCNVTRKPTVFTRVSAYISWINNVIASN

Take `O=C(OC[C@H]1O[C@@H](OC(=O)c2cc(O)c(O)c(O)c2)[C@H](OC(=O)c2cc(O)c(O)c(O)c2)[C@@H](OC(=O)c2cc(O)c(O)c(O)c2)[C@@H]1OC(=O)c1cc(O)c(O)c(O)c1)c1cc(O)c(O)c(O)c1` [Formula 3, pentagalloyl glucose]: the Inhibition (at 70 μg/ml) is listed as 56.6% at 70 μg/ml. Further, where the note is “synergistic studies, ratio Pentagalloyl glucose:Methyl gallate, concentration not given”, the “% Inhibition” value was 49%.
